Where “and” joins values, the source holds several entries; their conditions need not be identical. Identical values can stand only once.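 Tested at 5 concentrations; 48 h exposure; 96-well plates; endpoints linearly interpolated, else capped at highest concentration. Here, GI50 denotes the concentration required for 50% inhibition of growth. TGI is the concentration that stops growth completely.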 Some results are limits rather than exact numbers.

This note sets out measurements from PubChem BioAssay (NCI).

Test systems include SNB-19 CNS; SF-539 CNS; HCT-15 colon; LOX IMVI melanoma; MCF7 breast; EKVX NSCLC; SK-MEL-5 melanoma; OVCAR-3 ovarian; MDA-N; SR leukemia.
Holding throughout (assay): NCI tumour cell line growth inhibition, 48 h

Consider `CSCSCC(CO)NC(=O)/C=C\c1c(C)[nH]c(=O)[nH]c1=O` (stereo not given), for which the TGI in the experiment on SNB-19 CNS was determined as 197 µM; in the experiment on SF-539 CNS, 192 µM; in the experiment with HCT-15 colon, 214 µM; with LOX IMVI melanoma, 107 µM; with MCF7 breast it was 29.2 µM; in the experiment on EKVX NSCLC it was 153 µM. In addition, the TGI turned out to be 105 µM in the experiment with SK-MEL-5 melanoma and 14 µM in the experiment on OVCAR-3 ovarian. In addition, the GI50 with OVCAR-3 ovarian was 1.41 µM.

With `COc1ccc(NCn2nc(CCCCCCCCc3nn(CNc4ccc(OC)cc4)c(=S)o3)oc2=S)cc1`, the TGI with SNB-19 CNS, with MDA-N, in the experiment on HCT-15 colon, in the experiment on MCF7 breast, in the experiment with EKVX NSCLC and with SK-MEL-5 melanoma was more than 100 µM each time.

As for `O=C(O)C12C=CC(C1)c1ccccc12` (stereo not given), the TGI in the experiment on SNB-19 CNS, with SR leukemia, in the experiment on HCT-15 colon, in the experiment on LOX IMVI melanoma, in the experiment with SK-MEL-5 melanoma and in the experiment with OVCAR-3 ovarian was more than 100 µM in each case.

Regarding `COc1cccc(C2C(C#N)=C(N)Oc3cc(OCCCCCC[P+](c4ccccc4)(c4ccccc4)c4ccccc4)ccc32)c1` (stereo not given), the GI50 with SNB-19 CNS is 0.366 µM; with SR leukemia, 0.36 µM; with SF-539 CNS, 0.745 µM; in the experiment with HCT-15 colon, 2.24 µM; in the experiment with OVCAR-3 ovarian, 0.382 µM. Also, the TGI came out at 1.44 µM in the experiment with SNB-19 CNS; 1.92 µM in the experiment with SR leukemia; 2.12 µM in the experiment on SF-539 CNS; 6.14 µM in the experiment on HCT-15 colon; 1.37 µM in the experiment on OVCAR-3 ovarian.

Take `CC(C)(C)N=C1C(=O)C2(C)CCC1C2(C)C` (stereo not given): the TGI in the experiment with SNB-19 CNS, in the experiment on SR leukemia, with SF-539 CNS, in the experiment with HCT-15 colon, in the experiment with LOX IMVI melanoma and in the experiment with MCF7 breast was more than 100 µM in each case. For the same molecule, the TGI in the experiment on EKVX NSCLC, in the experiment with SK-MEL-5 melanoma and in the experiment on OVCAR-3 ovarian was more than 100 µM each time.

In the case of `Oc1c(NCn2nc(CCCCCCCCc3nn(CNc4ccc5ccccc5c4O)c(=S)o3)oc2=S)ccc2ccccc12`, the TGI is more than 100 µM with SNB-19 CNS; 48.5 µM in the experiment with MDA-N; more than 100 µM in the experiment on HCT-15 colon; more than 100 µM with MCF7 breast; more than 100 µM in the experiment with EKVX NSCLC; more than 100 µM with SK-MEL-5 melanoma.

In the case of `COc1ccc(N=C(C)C(C)=Nc2ccc(OC)cc2)cc1`, the TGI in the experiment with SNB-19 CNS, in the experiment on SR leukemia, in the experiment on SF-539 CNS, in the experiment with HCT-15 colon, in the experiment on LOX IMVI melanoma and in the experiment on MCF7 breast was more than 100 µM each time. In addition, the TGI in the experiment on EKVX NSCLC, in the experiment on SK-MEL-5 melanoma and in the experiment with OVCAR-3 ovarian was more than 100 µM in each case.

For the molecule `CCCCn1c(-c2ccccc2)cs/c1=N\NC(=O)Cn1c(C)nc2ccccc21`, the TGI in the experiment on SNB-19 CNS was more than 100 µM; in the experiment on SR leukemia, 50.9 µM; with SF-539 CNS, more than 100 µM; in the experiment with HCT-15 colon, more than 100 µM; in the experiment with LOX IMVI melanoma, more than 100 µM; in the experiment on EKVX NSCLC it was more than 100 µM. Also, the TGI with SK-MEL-5 melanoma and in the experiment on OVCAR-3 ovarian was more than 100 µM throughout.

`Cc1c2cc[n+](C)cc2c(C)c2c1[nH]c1ccc(OCC(F)(F)F)cc12`: the TGI with SNB-19 CNS was 3.02 µM; with SR leukemia, 23 µM and > 52.1 µM; in the experiment with HCT-15 colon, more than 100 µM; with LOX IMVI melanoma it was more than 100 µM; with EKVX NSCLC it was 82.9 µM; with SK-MEL-5 melanoma it was 11.2 µM and 7.07 µM. In addition, the TGI in the experiment with OVCAR-3 ovarian is 25 µM and > 100 µM. The GI50 is 1.73 µM in the experiment on SF-539 CNS; 44.6 µM and > 100 µM with HCT-15 colon; 10.8 µM and 22.8 µM with LOX IMVI melanoma.

As for `C/C(N=NS(=O)(=O)c1c(C)cc(C)cc1C)=C1\C=CC=CN1O`, the TGI in the experiment on SNB-19 CNS, in the experiment on SR leukemia, with SF-539 CNS, in the experiment with HCT-15 colon, in the experiment with EKVX NSCLC and with SK-MEL-5 melanoma was more than 100 µM each time. Moreover, the TGI in the experiment with OVCAR-3 ovarian was more than 100 µM.

Regarding `C=C1C(=O)OC2C[C@@]3(C)CCCC(=C)C3CC12` (stereo not given in full), the TGI was 23.4 µM in the experiment with SNB-19 CNS; more than 100 µM in the experiment with SR leukemia; 3.7 µM in the experiment on SF-539 CNS; 24.7 µM with HCT-15 colon; 2.59 µM with LOX IMVI melanoma; 31.5 µM in the experiment on EKVX NSCLC. Further, the values for the TGI with SK-MEL-5 melanoma and with OVCAR-3 ovarian were 20.4 µM and 22.6 µM, respectively.

With `O=C(NCc1cn(Cc2cccc(Oc3ccccc3)c2)nn1)c1cccnc1NCc1ccc(Cl)cc1`, the GI50 in the experiment with SNB-19 CNS is 3.91 µM; in the experiment on SR leukemia, 3.31 µM; with SF-539 CNS, 2.24 µM; in the experiment with HCT-15 colon, 3.39 µM; in the experiment with LOX IMVI melanoma, 3.9 µM; in the experiment with MCF7 breast it was 2.99 µM. The GI50 is 3.65 µM with EKVX NSCLC, 2.53 µM with SK-MEL-5 melanoma and 3.48 µM in the experiment on OVCAR-3 ovarian. The TGI was more than 100 µM with SNB-19 CNS; more than 100 µM in the experiment on SR leukemia; 5.17 µM in the experiment on SF-539 CNS; more than 100 µM in the experiment on HCT-15 colon; more than 100 µM in the experiment on LOX IMVI melanoma; more than 100 µM in the experiment with MCF7 breast. The TGI in the experiment with EKVX NSCLC is more than 100 µM; with SK-MEL-5 melanoma, 7.4 µM; in the experiment with OVCAR-3 ovarian, 9.55 µM.

For the molecule `O=c1[nH]c(=S)[nH]c2c1CCCN2`, the TGI with SNB-19 CNS, in the experiment on SR leukemia, in the experiment with HCT-15 colon, in the experiment with LOX IMVI melanoma, in the experiment on EKVX NSCLC and in the experiment with SK-MEL-5 melanoma was more than 100 µM throughout. In the experiment on OVCAR-3 ovarian, the TGI is more than 100 µM.

Regarding `NCCCNCCSP(=O)(O)O`, the TGI in the experiment on SNB-19 CNS is more than 750 µM; in the experiment on SF-539 CNS it was more than 750 µM; in the experiment with HCT-15 colon, more than 645 µM; in the experiment with LOX IMVI melanoma, more than 750 µM; in the experiment with MCF7 breast, more than 750 µM; in the experiment with EKVX NSCLC, more than 750 µM. The TGI in the experiment with SK-MEL-5 melanoma and with OVCAR-3 ovarian was more than 750 µM in each case.

For `O=Cn1c2ccccc2c2ccccc21`, the TGI with SNB-19 CNS, in the experiment with SR leukemia, in the experiment with SF-539 CNS, with HCT-15 colon, with LOX IMVI melanoma and with EKVX NSCLC was more than 100 µM in each case. Also, the TGI with SK-MEL-5 melanoma and with OVCAR-3 ovarian was more than 100 µM each time.

As to `COc1cc(/C=C2\N=C(c3ccccc3)N(c3cc4cc(Sc5ccccc5)ccc4[nH]3)C2=O)ccc1O`, the TGI in the experiment with SNB-19 CNS is more than 50 µM; with SR leukemia it was 20.4 µM; in the experiment on SF-539 CNS, more than 50 µM; in the experiment with HCT-15 colon, more than 50 µM; in the experiment on LOX IMVI melanoma, more than 50 µM; in the experiment on MCF7 breast it was more than 50 µM. The TGI in the experiment on EKVX NSCLC and with SK-MEL-5 melanoma was more than 50 µM throughout.

Turning to `c1ccc(C2N=C(c3ccccn3)C(c3ccccn3)=NC2c2ccccc2)cc1` (stereo not given), the TGI in the experiment on SNB-19 CNS, in the experiment with SF-539 CNS, with HCT-15 colon, with LOX IMVI melanoma, with EKVX NSCLC and with SK-MEL-5 melanoma was more than 100 µM each time. In the experiment on OVCAR-3 ovarian, this molecule showed a TGI of more than 100 µM.

Consider `C=C1c2nc3ccccc3n2C=C(c2ccccc2)N1c1ccc(C)cc1`, for which the TGI in the experiment with SNB-19 CNS, with SR leukemia, with SF-539 CNS, in the experiment on HCT-15 colon, in the experiment on LOX IMVI melanoma and in the experiment with MCF7 breast was more than 100 µM throughout. Also, the TGI in the experiment with EKVX NSCLC, in the experiment with SK-MEL-5 melanoma and in the experiment with OVCAR-3 ovarian was more than 100 µM each time.

In the case of `Cc1ccc(N=Nc2c(O)ccc3ccccc23)c(C)c1`, the TGI with SNB-19 CNS, with MDA-N, with HCT-15 colon, in the experiment on LOX IMVI melanoma, with SK-MEL-5 melanoma and in the experiment with OVCAR-3 ovarian was more than 100 µM each time.

On to `CN(C)Cc1cc(/C=C/C(=O)c2ccc(Br)cc2)cc(CN(C)C)c1O`, for which the TGI is 48.2 µM with SNB-19 CNS; 32.6 µM in the experiment on MDA-N; 29.1 µM with SF-539 CNS; 50.5 µM in the experiment on MCF7 breast; 55.2 µM in the experiment with EKVX NSCLC; 40 µM in the experiment with SK-MEL-5 melanoma. In the experiment on OVCAR-3 ovarian, this molecule displayed a TGI of 71.4 µM.

`COC(=O)c1c(CC(=O)OC(C)C)cc2n(c1=O)Cc1c-2nc2ccccc2c1OC`: the TGI in the experiment with SNB-19 CNS, in the experiment on SR leukemia, in the experiment with HCT-15 colon, in the experiment on LOX IMVI melanoma, in the experiment on EKVX NSCLC and in the experiment on SK-MEL-5 melanoma was more than 100 µM each time. Further, in the experiment on OVCAR-3 ovarian, the TGI was more than 100 µM.

With `Cc1cc2ccccc2n2c1nc1ccc(O)cc12`, the TGI in the experiment on SNB-19 CNS, in the experiment on SR leukemia, in the experiment with SF-539 CNS, in the experiment on HCT-15 colon, in the experiment on MCF7 breast and in the experiment on EKVX NSCLC was more than 10 µM in each case. Further, the TGI in the experiment on SK-MEL-5 melanoma and with OVCAR-3 ovarian was more than 10 µM throughout.

Consider `C[C@]12CC[C@H]3[C@@H](CC=C4C[C@@H](O)CC[C@@]43C)[C@@H]1C/C(=C\c1ccc([N+](=O)[O-])cc1)[C@@H]2O`, for which the TGI is 38.7 µM in the experiment with SNB-19 CNS; more than 100 µM with SR leukemia; 34.5 µM with SF-539 CNS; more than 100 µM in the experiment on HCT-15 colon; more than 100 µM in the experiment on LOX IMVI melanoma; 19.6 µM in the experiment on MCF7 breast. Moreover, the TGI with EKVX NSCLC is 26.5 µM; with SK-MEL-5 melanoma, 23.2 µM; in the experiment with OVCAR-3 ovarian it was 37.1 µM.
